# Laboratory results: patent US20260193271A1, “PAN-KRAS INHIBITOR COMPOUND” (ADLAI NORTYE BIOPHARMA CO., LTD., priority 2022, published 2026)
# How the values were obtained:
# AsPC-1 (G12D) = assay: In vitro cell proliferation inhibition test (CellTiter-Glo), AsPC-1; type: cell-based; conditions: KRAS (p.G12D), 72 h co-incubation
# Text: (§1) Test Example 1: In Vitro Cell Proliferation Inhibition Test
# (§2) Due to the diversity of RAS mutations and in order to evaluate the activity of compounds in different RAS mutation cell lines, we selected KRAS^WT, KRAS^G12C, KRAS^G12D, KRAS^G12V and BRAF mutation cell lines (see the table below) for in vitro activity evaluation and screening of compounds.
# (§3) Protocol: CellTiter-Glo® Cell Luminescent Viability Assay (Promega)
# (§4) According to the doubling time of different cell lines, different numbers of cells (1000-5000 cells/well) were seeded in 96-well plates containing 180 μl of corresponding culture medium and cultured overnight in a cell culture incubator at 37° C. with 5% CO2. On the second day, the test compound was pre-diluted 3-fold with culture medium, with the highest concentration being 100 μM, for a total of 10 concentration gradients; then 20 μl of culture medium containing different concentrations of the compound was added to the cells in the 96-well plate to ensure that the final concentration of the compound was up to 10 μM, with 10 concentration gradients of 3-fold dilution. After the cells and compounds were co-incubated for 72 h, the 96-well plate was removed from the incubator and equilibrated at room temperature for 30 min. Then, 25 μl of CellTiter-Glo® Reagent was added to each well and mixed thoroughly. The mixture was incubated at room temperature for 10 min, and then 100 μl of the sample was transferred to a white 96-well plate (OptiPlate™-96, PerkinElmer). The […] signal value was read using a multi-function microplate reader (SpectraMax® i3x, Molecular devices). The signal values were then standardized, and the curve was fitted using a four-parameter regression equation to calculate the half maximal inhibitory concentration (IC50) of the compound on the cell line.
# SW480 (G12V) = assay: In vitro cell proliferation inhibition test (CellTiter-Glo), SW480; type: cell-based; conditions: Homo sapiens, SW480 colon cell line, KRAS (p.G12V), 72 h co-incubation
# Text: as §1, §2, §3, §4
# [1] = Homo sapiens, ASPC1, AsPC-1 pancreas cell line
IC50 (AsPC-1 (G12D); [1]) [nM],IC50 (SW480 (G12V)) [nM],IC50 (AsPC-1 (G12D); AsPC-1 pancreas cell line) [nM],Compound
1.1,1.3,–,"CCn1c(-c2cc(-c3ccc(CN4CCOCC4)cc3)cnc2[C@H](C)OC)c2c3cc(ccc31)-c1csc(n1)C[C@H](NC(=O)[C@H]1[C@H](C)[C@@H]1C)C(=O)N1CCC[C@H](N1)C(=O)OCC(C)(C)C2 (atropisomer, axis not shown) [Compound 1, (1r,2R,3S)-N-((6^3S,4S,Z)-1^1-ethyl-1^2-(2-((S)-1-methoxyethyl)-5-(4-(morpholinomethyl)phenyl)pyridin-3-yl)-10,10-dimethyl-5,7-dioxo-6^1,6^2,6^3,6^4,6^5,6^6-hexahydro-1^1H-8-oxa-2(4,2)-thiazola-1(5,3)-indola-6(1,3)-pyridazinacycloundecaphane-4-yl)-2,3-dimethylcyclopropane-1-carboxamide]"
21,670,–,"CCn1c(-c2cc(-c3ccc4c(c3)CN(C)C4)cnc2[C@H](C)OC)c2c3cc(ccc31)-c1csc(n1)C[C@H](NC(=O)[C@H]1C[C@@H]1C)C(=O)N1CCC[C@H](N1)C(=O)OCC(C)(C)C2 (atropisomer, axis not shown) [Compound 2, (1S,2S)-N-((6^3S,4S,Z)-1^1-ethyl-1^2-(2-((S)-1-methoxyethyl)-5-(2-methylisoindolin-5-yl)pyridin-3-yl)-10,10-dimethyl-5,7-dioxo-6^1,6^2,6^3,6^4,6^5,6^6-hexahydro-1^1H-8-oxa-2(4,2)-thiazola-1(5,3)-indola-6(1,3)-pyridazinacycloundecaphane-4-yl)-2-methylcyclopropane-1-carboxamide]"
0.18,0.33,–,"CCn1c(-c2cc(-c3ccc4c(c3)CCN(C)C4)cnc2[C@H](C)OC)c2c3cc(ccc31)-c1csc(n1)C[C@H](NC(=O)[C@H]1[C@H](C)[C@@H]1C)C(=O)N1CCC[C@H](N1)C(=O)OCC(C)(C)C2 (atropisomer, axis not shown) [Compound 3, (1r,2R,3S)-N-((6^3S,4S,Z)-1^1-ethyl-1^2-(2-((S)-1-methoxyethyl)-5-(2-methyl-1,2,3,4-tetrahydroisoquinolin-6-yl)pyridin-3-yl)-10,10-dimethyl-5,7-dioxo-6^1,6^2,6^3,6^4,6^5,6^6-hexahydro-1^1H-8-oxa-2(4,2)-thiazola-1(5,3)-indola-6(1,3)-pyridazinacycloundecaphane-4-yl)-2,3-dimethylcyclopropane-1-carboxamide]"
2.6,1.6,–,"CCn1c(-c2cc(-c3cccc(CN(C)C)c3)cnc2[C@H](C)OC)c2c3cc(ccc31)-c1csc(n1)C[C@H](NC(=O)[C@H]1[C@H](C)[C@@H]1C)C(=O)N1CCC[C@H](N1)C(=O)OCC(C)(C)C2 (atropisomer, axis not shown) [Compound 4, (1r,2R,3S)-N-((6^3S,4S,Z)-1^2-(5-(3-((dimethylamino)methyl)phenyl)-2-((S)-1-methoxyethyl)pyridin-3-yl)-1^1-ethyl-10,10-dimethyl-5,7-dioxo-6^1,6^2,6^3,6^4,6^5,6^6-hexahydro-1^1H-8-oxa-2(4,2)-thiazola-1(5,3)-indola-6(1,3)-pyridazinacycloundecaphane-4-yl)-2,3-dimethylcyclopropane-1-carboxamide]"
6,10,–,"CCn1c(-c2cc(-c3ccc(CN4CCOCC4)nc3)cnc2[C@H](C)OC)c2c3cc(ccc31)-c1csc(n1)C[C@H](NC(=O)[C@H]1C[C@@H]1C)C(=O)N1CCC[C@H](N1)C(=O)OCC(C)(C)C2 (atropisomer, axis not shown) [Compound 5, (1S,2S)-N-((6^3S,4S,Z)-1^1-ethyl-1^2-(6-((S)-1-methoxyethyl)-6′-(morpholinomethyl)-[3,3′-bipyridin]-5-yl)-10,10-dimethyl-5,7-dioxo-6^1,6^2,6^3,6^4,6^5,6^6-hexahydro-1^1H-8-oxa-2(4,2)-thiazola-1(5,3)-indola-6(1,3)-pyridazinacycloundecaphane-4-yl)-2-methylcyclopropane-1-carboxamide]"
13,23,–,"CCn1c(-c2cc(-c3ccc(CN4CC[C@@H](F)C4)cc3)cnc2[C@H](C)OC)c2c3cc(ccc31)-c1csc(n1)C[C@H](NC(=O)[C@H]1C[C@@H]1C)C(=O)N1CCC[C@H](N1)C(=O)OCC(C)(C)C2 (atropisomer, axis not shown) [Compound 6, (1S,2S)-N-((6^3S,4S,Z)-1^1-ethyl-1^2-(5-(4-(((R)-3-fluoropyrrolidin-1-yl)methyl)phenyl)-2-((S)-1-methoxyethyl)pyridin-3-yl)-10,10-dimethyl-5,7-dioxo-6^1,6^2,6^3,6^4,6^5,6^6-hexahydro-1^1H-8-oxa-2(4,2)-thiazola-1(5,3)-indola-6(1,3)-pyridazinacycloundecaphane-4-yl)-2-methylcyclopropane-1-carboxamide]"
–,–,13,"CCn1c(-c2cc(-c3cc(C4CN(C)CCO4)on3)cnc2C(C)OC)c2c3cc(ccc31)-c1csc(n1)CC(NC(=O)C1C(C)C1C)C(=O)N1CCCC(N1)C(=O)OCC(C)(C)C2 [Compound 26′, (1r,2R,3S)-N-((6^3S,4S,Z)-1^1-ethyl-1^2-(2-((S)-1-methoxyethyl)-5-(5-((R)-4-methylmorpholin-2-yl)isoxazol-3-yl)pyridin-3-yl)-10,10-dimethyl-5,7-dioxo-6^1,6^2,6^3,6^4,6^5,6^6-hexahydro-1^1H-8-oxa-2(4,2)-thiazola-1(5,3)-indola-6(1,3)-pyridazinacycloundecaphane-4-yl)-2,3-dimethylcyclopropane-1-carboxamide]"
–,–,33,"CCn1c(-c2cc(-c3cc(C4COCCN4C)on3)cnc2C(C)OC)c2c3cc(ccc31)-c1csc(n1)CC(NC(=O)C1C(C)C1C)C(=O)N1CCCC(N1)C(=O)OCC(C)(C)C2 [Compound 32′, (1r,2R,3S)-N-((6^3S,4S,Z)-1^1-ethyl-1^2-(2-((S)-1-methoxyethyl)-5-(5-((S)-4-methylmorpholin-3-yl)isoxazol-3-yl)pyridin-3-yl)-10,10-dimethyl-5,7-dioxo-6^1,6^2,6^3,6^4,6^5,6^6-hexahydro-1^1H-8-oxa-2(4,2)-thiazola-1(5,3)-indola-6(1,3)-pyridazinacycloundecaphane-4-yl)-2,3-dimethylcyclopropane-1-carboxamide]"
–,–,32,"CCn1c(-c2cc(-c3cc(C4COCCN4C)on3)cnc2C(C)OC)c2c3cc(ccc31)-c1csc(n1)CC(NC(=O)C1C(C)C1C)C(=O)N1CCCC(N1)C(=O)OCC(C)(C)C2 [Compound 33′, (1r,2R,3S)-N-((6^3S,4S,Z)-1^1-ethyl-1^2-(2-((S)-1-methoxyethyl)-5-(5-((R)-4-methylmorpholin-3-yl)isoxazol-3-yl)pyridin-3-yl)-10,10-dimethyl-5,7-dioxo-6^1,6^2,6^3,6^4,6^5,6^6-hexahydro-1^1H-8-oxa-2(4,2)-thiazola-1(5,3)-indola-6(1,3)-pyridazinacycloundecaphane-4-yl)-2,3-dimethylcyclopropane-1-carboxamide]"
–,–,116,"CCn1c(-c2cc(-c3cc(C4(C)CN(C)C4)on3)cnc2C(C)OC)c2c3cc(ccc31)-c1csc(n1)CC(NC(=O)C1C(C)C1C)C(=O)N1CCCC(N1)C(=O)OCC(C)(C)C2 [Compound 34′, (1r,2R,3S)-N-((6^3S,4S,Z)-1^2-(5-(5-(1,3-dimethylazetidin-3-yl)isoxazol-3-yl)-2-((S)-1-methoxyethyl)pyridin-3-yl)-1^1-ethyl-10,10-dimethyl-5,7-dioxo-6^1,6^2,6^3,6^4,6^5,6^6-hexahydro-1^1H-8-oxa-2(4,2)-thiazola-1(5,3)-indola-6(1,3)-pyridazinacycloundecaphane-4-yl)-2,3-dimethylcyclopropane-1-carboxamide]"
–,–,1020,"(1S,2S)-N-((6^3S,4S,Z)-1^1-ethyl-1^2-(2-((S)-1-methoxyethyl)-5-(1-(2-morpholinoethyl)-1H-pyrazol-4-yl)pyridin-3-yl)-10,10-dimethyl-5,7-dioxo-6^1,6^2,6^3,6^4,6^5,6^6-hexahydro-1^1H-8-oxa-2(4,2)-thiazola-1(5,3)-indola-6(1,3)-pyridazinacycloundecaphane-4-yl)-2-methylcyclopropane-1-carboxamide [Compound 15′]"
–,–,53,"(1S,2S)-N-((6^3S,4S,Z)-1^1-ethyl-1^2-(2-((S)-1-methoxyethyl)-5-(5-(1-methylazetidin-3-yl)isoxazol-3-yl)pyridin-3-yl)-10,10-dimethyl-5,7-dioxo-6^1,6^2,6^3,6^4,6^5,6^6-hexahydro-1^1H-8-oxa-2(4,2)-thiazola-1(5,3)-indola-6(1,3)-pyridazinacycloundecaphane-4-yl)-2-methylcyclopropane-1-carboxamide [Compound 31′]"
–,–,60,"(1S,2S)-N-((6^3S,4S,Z)-1^1-ethyl-1^2-(2-((S)-1-methoxyethyl)-5-(5-(1-methylpiperidin-4-yl)isoxazol-3-yl)pyridin-3-yl)-10,10-dimethyl-5,7-dioxo-6^1,6^2,6^3,6^4,6^5,6^6-hexahydro-1^1H-8-oxa-2(4,2)-thiazola-1(5,3)-indola-6(1,3)-pyridazinacycloundecaphane-4-yl)-2-methylcyclopropane-1-carboxamide [Compound 30′]"
